Test results as given in US20050197350A1, “Novel quinoline, tetrahydroquinazoline, and pyrimidine derivatives and methods of treatment related to the use thereof” (TAISHO PHARMACEUTICAL CO., LTD., priority 2003, published 2005).
Structures can show the parent of a compound that is named as a salt.

Molecular target: MCH receptor (Homo sapiens, UniProt Q99705)
Experiment: High throughput functional screening FLIPR/FDSS6000 (intracellular Ca2+ evoked by MCH)
Type: cell-based
Details: FLIPR/FDSS, antagonist activity vs 50 nM MCH; class by percent of control at 10^−7 M or IC50; table after the classification; read-out: class
Outline: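 For antagonist testing, compound-treated cells (30 min, 37 °C) were stimulated with 50 nM MCH and intracellular Ca2+ followed by Fluo4 fluorescence on FLIPR/FDSS6000. Receptor was a constitutively active, non-endogenous MCH receptor; dye loading 4 μM Fluo4-AM, 1 h, 37 °C.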

SMILES	IC50
Cc1cnc(N[C@H]2CC[C@@H](NC(=O)c3cccnc3Oc3ccccc3)CC2)nc1N(C)C [Example 3120, N-[cis-4-(4-Dimethylamino-5-methyl-pyrimidin-2-ylamino)-cyclohexyl]-2-phenoxy-nicotinamide hydrochloride]	< 50 nM
Cc1cccc(C(=O)N[C@H]2CC[C@@H](Nc3ncc(C)c(N(C)C)n3)CC2)c1 [Example 3121, N-[cis-4-(4-Dimethylamino-5-methyl-pyrimidin-2-ylamino)-cyclohexyl]-3-methyl-benzamide hydrochloride]	< 50 nM
COc1cccc(C(=O)N[C@H]2CC[C@@H](Nc3ncc(C)c(N(C)C)n3)CC2)c1 [Example 3122, N-[cis-4-(4-Dimethylamino-5-methyl-pyrimidin-2-ylamino)-cyclohexyl]-3-methoxy-benzamide hydrochloride]	< 50 nM
Cc1cnc(N[C@H]2CC[C@@H](NC(=O)c3cccnc3Oc3ccc(F)cc3)CC2)nc1N(C)C [Example 3123, N-[cis-4-(4-Dimethylamino-5-methyl-pyrimidin-2-ylamino)-cyclohexyl]-2-(4-fluoro-phenoxy)-nicotinamide hydrochloride]	< 50 nM
Cc1cnc(N[C@H]2CC[C@@H](NC(=O)c3cccnc3Oc3ccccc3Br)CC2)nc1N(C)C [Example 3124, 2-(2-Bromo-phenoxy)-N-[cis-4-(4-dimethylamino-5-methyl-pyrimidin-2-ylamino)-cyclohexyl]-nicotinamide hydrochloride]	< 50 nM
Cc1cnc(N[C@H]2CC[C@@H](CNC(=O)Nc3cccc(Cl)c3Cl)CC2)nc1N(C)C [Example 3125, 1-(2,3-Dichloro-phenyl)-3-[cis-4-(4-dimethylamino-5-methyl-pyrimidin-2-ylamino)-cyclohexylmethyl]-urea hydrochloride]	< 50 nM
Cc1cc(N(C)C)nc(N[C@H]2CC[C@@H](NC(=O)c3cccnc3Oc3ccccc3)CC2)n1 [Example 3126, N-[cis-4-(4-Dimethylamino-6-methyl-pyrimidin-2-ylamino)-cyclohexyl]-2-phenoxy-nicotinamide hydrochloride]	< 50 nM
Cc1cc(N(C)C)nc(N[C@H]2CC[C@@H](NC(=O)c3ccc(F)c(F)c3)CC2)n1 [Example 3127, N-[cis-4-(4-dimethylamino-C-methyl-pyrimidin-2-ylamino)-cyclohexyl]-3,4-difluoro-benzamide hydrochloride]	< 50 nM
Cc1cc(N(C)C)nc(N[C@H]2CC[C@@H](NC(=O)c3cccc(Cl)c3)CC2)n1 [Example 3128, 3-Chloro-N-[cis-4-(4-dimethylamino-6-methyl-pyrimidin-2-ylamino)-cyclohexyl]-benzamide hydrochloride]	< 50 nM
CN(C)c1ccnc(N[C@H]2CC[C@@H](NC(=O)c3cccnc3Oc3ccccc3)CC2)n1 [Example 3129, N-[cis-4-(4-Dimethylamino-pyrimidin-2-ylamino)-cyclohexyl]-2-phenoxy-nicotinamide hydrochloride]	50 to 200 nM
O=C(N[C@H]1CC[C@@H](Nc2nccc(C(F)(F)F)n2)CC1)c1ccc(F)c(F)c1 [Example 3130, 3,4-Difluoro-N-[cis-4-(4-trifluoromethyl-pyrimidin-2-yl)amino-cyclohexyl]-benzamide hydrochloride]	> 200 nM
COc1ccnc(N[C@H]2CC[C@@H](NC(=O)c3ccc(F)c(F)c3)CC2)n1 [Example 3131, 3,4-Difluoro-N-[cis-4-(4-methoxy-pyrimidin-2-ylamino)-cyclohexyl]-benzamide hydrochloride]	> 200 nM
COc1cc(OC)nc(N[C@H]2CC[C@@H](NC(=O)c3ccc(F)c(F)c3)CC2)n1 [Example 3132, N-[cis-4-(4,6-Dimethoxy-pyrimidin-2-ylamino)-cyclohexyl]-3,4-difluoro-benzamide hydrochloride]	> 200 nM
O=C(N[C@H]1CC[C@@H](Nc2nccc(C(F)(F)F)n2)CC1)c1cccnc1Oc1ccccc1 [Example 3133, 2-Phenoxy-N-[cis-4-(4-trifluoromethyl-pyrimidin-2-yl)-amino-cyclohexyl]-nicotinamide hydrochloride]	> 200 nM
